Assay results: patent US20260297542A1, “HERBICIDE RESISTANT PLANTS” (SYNGENTA CROP PROTECTION AG, priority 2023, published 2026)
Where a chain is given by its changes, count along the chain named.

Key:
[1] = target: T1, AtPPO1 S305L G404A Y426V T431R L479N (SEQ ID NO.127) (Arabidopsis thaliana, UniProt P55826, G404A/L479N/S305L/T431R/Y426V); assay: fluorescent Protoporphyrinogen Oxidase assay, crude extract; assay type: biochemical; conditions: read-out: percentage inhibition
T1 construct: made in house; host or cells: E. coli BL21 (DE3) hemG, crude extract
T1 sequence (P55826 35-537 S305L/G404A/Y426V/T431R/L479N): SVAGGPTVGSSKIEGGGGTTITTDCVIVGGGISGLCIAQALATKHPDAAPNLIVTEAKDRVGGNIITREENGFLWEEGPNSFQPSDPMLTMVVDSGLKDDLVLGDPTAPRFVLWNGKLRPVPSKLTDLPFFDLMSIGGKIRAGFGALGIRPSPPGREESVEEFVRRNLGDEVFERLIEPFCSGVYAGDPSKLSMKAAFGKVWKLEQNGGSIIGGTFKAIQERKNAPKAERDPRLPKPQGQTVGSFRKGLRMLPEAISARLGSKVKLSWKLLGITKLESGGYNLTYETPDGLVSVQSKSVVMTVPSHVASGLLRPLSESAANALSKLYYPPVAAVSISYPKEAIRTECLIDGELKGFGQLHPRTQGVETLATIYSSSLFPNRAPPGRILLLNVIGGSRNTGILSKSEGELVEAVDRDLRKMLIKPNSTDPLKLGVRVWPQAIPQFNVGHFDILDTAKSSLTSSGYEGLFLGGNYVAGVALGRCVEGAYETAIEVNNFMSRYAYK

WT (SEQ ID NO.1) AtPPO1 = target: T2, WT (SEQ ID NO.1) AtPPO1 (Arabidopsis thaliana, UniProt P55826); assay: as above; assay type: biochemical; conditions: read-out: percentage inhibition
T2 construct: made in house; host or cells: E. coli BL21 (DE3) hemG, crude extract
T2 sequence (P55826 35-537): T1 sequence (P55826 35-537 S305L/G404A/Y426V/T431R/L479N) with L271S, A370G, V392Y, R397T, N445L

Structure (SMILES)	inhibition at 0.1 ppm [1] [%]	inhibition at 1 ppm [1] [%]	inhibition at 10 ppm [1] [%]	inhibition at 100 ppm [1] [%]	inhibition at 0.1 ppm (WT (SEQ ID NO.1) AtPPO1) [%]	inhibition at 1 ppm (WT (SEQ ID NO.1) AtPPO1) [%]	inhibition at 10 ppm (WT (SEQ ID NO.1) AtPPO1) [%]	inhibition at 100 ppm (WT (SEQ ID NO.1) AtPPO1) [%]
CCOC(=O)[C@]1(C)CC(c2cc(-n3c(=O)n(C)c(=S)n(C)c3=O)c(F)cc2Cl)=NO1 [Herbicide D, ethyl (5S)-3-[2-chloro-5-(3,5-dimethyl-2,6-dioxo-4-thioxo-1,3,5-triazinan-1-yl)-4-fluoro-phenyl]-5-methyl-4H-isoxazole-5-carboxylate]	13	40	75	92	91	90	96	100
CCOC(=O)C1(C)CC(c2cc(-n3c(=O)cc(C(F)(F)F)n(C)c3=O)c(F)cc2Cl)=NO1 (stereo not shown) [Herbicide C, 3-(2-chloro-4-fluoro-5-(3-methyl-2,6-dioxo-4-trifluoromethyl-3,6-dihydropyrimidin-1(2H)-yl)phenyl)-5-methyl-4,5-dihydroisoxazole-5-carboxylic acid ethyl ester]	47	57	83	96	91	91	98	93
CCOC(=O)COc1ncccc1Oc1cc(-n2c(=O)cc(C(F)(F)F)n(C)c2=O)c(F)cc1Cl [Herbicide A, epyrifenacil]	9	45	69	88	94	100	97	100
C#CCN1C(=O)C(F)(F)Oc2cc(F)c(-n3c(=O)n(C)c(=S)n(C)c3=O)cc21 [Herbicide B, trifludimoxazin]	91	100	100	100	97	97	96	100
CC(C)N(C)S(=O)(=O)NC(=O)c1cc(-n2c(=O)cc(C(F)(F)F)n(C)c2=O)c(F)cc1Cl [Herbicide E, saflufenacil]	11	48	75	92	91	97	100	100
